± gives the expanded uncertainty stated by the source.
Experiments:
[1] = for thermal conductivity / thermal diffusivity: 100 kPa; for thermal diffusivity: Laser flash apparatus
[2] = molar heat capacity at constant pressure; conditions: 100 kPa, DSC

SMILES: [Fe] [iron]
- mass density ([1]; 293 K, 101.33 kPa, Crystal 4): 7849 ± 6 kg/m3
- thermal conductivity ([1]; 293.15 K, Crystal 4): 82.5 ± 7 W/m/K
- thermal diffusivity ([1]; 293.15 K, Crystal 4): 2.22e-05 ± 1.2e-06 m2/s
- thermal conductivity ([1]; 373.15 K, Crystal 4): 73.4 ± 5.4 W/m/K
- thermal diffusivity ([1]; 373.15 K, Crystal 4): 1.92e-05 ± 1.1e-06 m2/s
- thermal conductivity ([1]; 473.15 K, Crystal 4): 65.5 ± 4.8 W/m/K
- thermal diffusivity ([1]; 473.15 K, Crystal 4): 1.58e-05 ± 8.2e-07 m2/s
- thermal conductivity ([1]; 573.15 K, Crystal 4): 58.2 ± 4.5 W/m/K
- thermal diffusivity ([1]; 573.15 K, Crystal 4): 1.31e-05 ± 6.7e-07 m2/s
- thermal conductivity ([1]; 673.15 K, Crystal 4): 52 ± 4.1 W/m/K
- thermal diffusivity ([1]; 673.15 K, Crystal 4): 1.08e-05 ± 5.5e-07 m2/s
- thermal conductivity ([1]; 773.15 K, Crystal 4): 46.7 ± 3.6 W/m/K
- thermal diffusivity ([1]; 773.15 K, Crystal 4): 8.91e-06 ± 4.6e-07 m2/s
- thermal conductivity ([1]; 873.15 K, Crystal 4): 41.1 ± 3 W/m/K
- thermal diffusivity ([1]; 873.15 K, Crystal 4): 7.06e-06 ± 3.5e-07 m2/s
- thermal conductivity ([1]; 973.15 K, Crystal 4): 36.2 ± 3.2 W/m/K
- thermal diffusivity ([1]; 973.15 K, Crystal 4): 5.18e-06 ± 2.8e-07 m2/s
- thermal conductivity ([1]; 1073.2 K, Crystal 3): 31.5 ± 2.8 W/m/K
- thermal diffusivity ([1]; 1073.2 K, Crystal 3): 4.49e-06 ± 2.4e-07 m2/s
- thermal conductivity ([1]; 1173.2 K, Crystal 3): 30 ± 3 W/m/K
- thermal diffusivity ([1]; 1173.2 K, Crystal 3): 5.27e-06 ± 2.6e-07 m2/s
- thermal conductivity ([1]; 1273.2 K, Crystal 2): 28.4 ± 2.8 W/m/K
- thermal diffusivity ([1]; 1273.2 K, Crystal 2): 6.33e-06 ± 3.5e-07 m2/s
- molar heat capacity at constant pressure ([2]; 293.15 K, Crystal 4): 24.96 ± 1.6 J/K/mol
- molar heat capacity at constant pressure ([2]; 373.15 K, Crystal 4): 27.53 ± 1.5 J/K/mol
- molar heat capacity at constant pressure ([2]; 473.15 K, Crystal 4): 29.54 ± 1.7 J/K/mol
- molar heat capacity at constant pressure ([2]; 573.15 K, Crystal 4): 31.38 ± 2 J/K/mol
- molar heat capacity at constant pressure ([2]; 673.15 K, Crystal 4): 34.23 ± 2.1 J/K/mol
- molar heat capacity at constant pressure ([2]; 773.15 K, Crystal 4): 37.36 ± 2.2 J/K/mol
- molar heat capacity at constant pressure ([2]; 873.15 K, Crystal 4): 41.66 ± 2.5 J/K/mol
- molar heat capacity at constant pressure ([2]; 973.15 K, Crystal 4): 48.64 ± 3.4 J/K/mol
- molar heat capacity at constant pressure ([2]; 1073.2 K, Crystal 3): 52.72 ± 4 J/K/mol
- molar heat capacity at constant pressure ([2]; 1173.2 K, Crystal 3): 42.22 ± 3.3 J/K/mol
- molar heat capacity at constant pressure ([2]; 1273.2 K, Crystal 2): 33.62 ± 2.4 J/K/mol

— the NIST ThermoML archive (doi:10.1007/s10765-019-2568-3)
